Here are results for 13 compounds from BindingDB's records for doi:10.1016/j.bmcl.2009.01.012 (Pfizer, 2009).

The nature of the test: Antagonist activity at human recombinant CCR5 expressed in human HeLa-P4 cells assessed as inhibition of human HeLa-P4 cells binding to HIV1 gp160 expressing CHO cells by cell-cell fusion assay.
As for `Cc1ccnc(C)c1C(=O)NCCN1CCCC(CC(c2ccccc2)c2ccccc2)C1` (racemic) [rac-N-(2-(3-(2,2-diphenylethyl)piperidin-1-yl)ethyl)-2,4-dimethylnicotinamide], the concentration for half-maximal inhibition (IC50) came to 56 nM.

For the compound `Cc1ccnc(C)c1C(=O)N1CC(N(C)C2CCN(C(c3ccccc3)c3ccccc3)CC2)C1` [(3-((1-benzhydrylpiperidin-4-yl)(methyl)amino)azetidin-1-yl)(2,4-dimethylpyridin-3-yl)methanone], the 50% inhibitory concentration (IC50) came out at 102 nM.

On to `Cc1ccnc(C)c1C(=O)N1CCC(N2C3CCC2CN(C(c2ccccc2)c2ccccc2)C3)CC1` [(4-(3-benzhydryl-3,8-diazabicyclo[3.2.1]octan-8-yl)piperidin-1-yl)(2,4-dimethylpyridin-3-yl)methanone], for which the IC50 came out at 41 nM. For the compound `Cc1ccnc(C)c1C(=O)N1CCC(N2CC3CCC(C2)N3C(c2ccccc2)c2ccccc2)CC1` [(4-(8-benzhydryl-3,8-diazabicyclo[3.2.1]octan-3-yl)piperidin-1-yl)(2,4-dimethylpyridin-3-yl)methanone], the 50% inhibitory concentration (IC50) is 313 nM.

For `Cc1ccnc(C)c1C(=O)N1CCC(N(C)C2CN(C(c3ccccc3)c3ccccc3)C2)CC1` [(4-((1-benzhydrylazetidin-3-yl)(methyl)amino)piperidin-1-yl)(2,4-dimethylpyridin-3-yl)methanone], the IC50 is 24 nM. Consider `Cc1cccc(C)c1C(=O)N1CCC(N2CC[C@@H](N(Cc3ccccc3)C(=O)C3CC3)C2)CC1` [(R)-N-benzyl-N-(1-(1-(2,6-dimethylbenzoyl)piperidin-4-yl)pyrrolidin-3-yl)cyclopropanecarboxamide], for which the IC50 amounted to 1 nM. In the case of `Cc1cccc(C)c1C(=O)N1CCC(N2CC[C@H](N(Cc3ccccc3)C(=O)C3CC3)C2)CC1` [(S)-N-benzyl-N-(1-(1-(2,6-dimethylbenzoyl)piperidin-4-yl)pyrrolidin-3-yl)cyclopropanecarboxamide], the IC50 was 1230 nM. On to `CC(=O)NC(c1ccccc1)C1CN(C2CCN(C(=O)c3c(C)cccc3C)CC2)C1` (stereo not drawn) [N-((1-(1-(2,6-dimethylbenzoyl)piperidin-4-yl)azetidin-3-yl)(phenyl)methyl)acetamide], for which the 50% inhibitory concentration (IC50) is 2490 nM.

`Cc1cccc(C)c1C(=O)N1CCC(N2CCC(CNC(=O)C3CC3)(Cc3ccccc3)CC2)CC1` [N-((4-benzyl-1'-(2,6-dimethylbenzoyl)-1,4'-bipiperidin-4-yl)methyl)cyclopropanecarboxamide]: the IC50 was 145 nM.

`Cc1cccc(C)c1C(=O)N1CCC(N2CCC(N(Cc3ccccc3)C(=O)C3CCC3)CC2)CC1` [N-benzyl-N-(1'-(2,6-dimethylbenzoyl)-1,4'-bipiperidin-4-yl)cyclobutanecarboxamide]: the concentration for half-maximal inhibition (IC50) was 3 nM. As to `Cc1cccc(C)c1C(=O)N1CCC(C)(N2CCC(N(Cc3ccccc3)C(=O)C3CC3)CC2)CC1` [N-benzyl-N-(1'-(2,6-dimethylbenzoyl)-4'-methyl-1,4'-bipiperidin-4-yl)cyclopropanecarboxamide], the 50% inhibitory concentration (IC50) is 0.5 nM.

Consider `Cc1cccc(C)c1C(=O)N1CCC(N2CC(N(Cc3ccccc3)C(=O)C3CC3)C2)CC1` [N-benzyl-N-(1-(1-(2,6-dimethylbenzoyl)piperidin-4-yl)azetidin-3-yl)cyclopropanecarboxamide], for which the IC50 amounted to 5800 nM. Turning to `Cc1cccc(C)c1C(=O)N1[C@@H]2CC[C@H]1C[C@H](N1CC[C@@H](N(Cc3ccccc3)C(=O)C3CC3)C1)C2` [exo-N-benzyl-N-((R)-1-(8-(2,6-dimethylbenzoyl)-8-azabicyclo[3.2.1]octan-3-yl)pyrrolidin-3-yl)cyclopropanecarboxamide], the concentration for half-maximal inhibition (IC50) is 1 nM.

As a reminder, the IC50 is the concentration at which inhibition is half-maximal.
